As a reminder, the IC50 is the concentration that inhibits the measured activity by half. The inhibition is the drop in the measured response relative to a control, in per cent.

The record followed here is patent publication US6423689B1, “Peptidyl calcium channel blockers” (Warner-Lambert Company, priority 1997, dated 2002).

The test system of test [1] is K+ channels in superior cervical ganglion (SCG) neurons. Description: Whole-cell voltage clamp, K+ current in SCG neurons. The format is cell-based, rat. Conditions: 10 μM. How it is done:
(§1) Electrophysiological techniques were used to measure the effects of experimental compounds on voltage-gated Ca^2+, Na^+ and K^+ channels. […] Sodium and potassium channel currents were measured from acutely dissociated SCG neurons.
(§2) Dissociation of the neurons from the ganglia was accomplished using a 30 to 45 minute treatment in 0.25% trypsin, similar to methods outlined in Higgins, et al. [see Higgins D., et al. “Tissue culture of mammalian autonomic neurons.” In Banker G. and Goslin K. (Eds), Culturing Nerve Cells, Cambridge, Mass., MIT Press (1991)].
(§3) Ca^2+, Na^+ and K^+ channel currents in SCG neurons were measured using conventional single electrode whole-cell voltage-clamp techniques, outlined in Hamill, et al., (see Hamill O.P., et al. “Improved patch-clamp techniques for high resolution current recordings from cells and cell-free membrane patches”. Pflugers Arch. 1981;391:85-100) For Ca^2+ channel experiments, the external bathing solution contained tetraethylammonium chloride (100 mM), choline chloride (52 mM), NaCl (15 mM), HEPES (10 mM), glucose (5.6 mM), CaCl2 (2 mM), and MgCl2 (0.8 mM) pH 7.35 with KOH; with the internal pipette solution containing cesium methane sulfonate (140 mM), EGTA (10 mM), and HEPES (10 mM), supplemented with 5 mM Mg^2+ -ATP on the day of the experiment, pH 7.4 with CsOH. For Na^+ and K^+ channel experiments, the external bathing solution contained NaCl (150 mM), KCl (5 mM), MgCl2 (1.1 mM), CaCl2 (2.6 mM), Na-HEPES (10 mM), and glucose (10 mM), pH 7.4; with the internal pipette solution containing KCl (80 mM), K-gluconate (50 mM), HEPES (10 mM), and EGTA (10 mM), pH 7.4 with KOH. Experimental compounds were diluted into the external solution and applied to the soma of cells by local perfusion from large diameter (20-50 μm) glass micropipettes or from a U-tube applicator.
(§4) For Na^+ and K^+ channel currents, following the determination of the I/V relationship for each cell in control solution, currents were evoked from a holding potential between −65 and −55 mV by stepping every 10 sec to a test potential of either 0 mV for Na^+ or +50 mV for K^+ current for a duration of 35 msec. Peak inward current was measured for Na^+ and sustained current for K^+ channel currents. […] Test compounds were applied until steady-state block was achieved. Data were expressed as percent inhibition of control amplitudes for Na^+ and K^+ channel currents.

Test [2] deals with T1, N-type Ca2+ channels in IMR-32 cells (Homo sapiens, UniProt Q00975).
T1 construct: host or cells: IMR-32 cells, differentiated with dibutyryl cAMP and bromodeoxyuridine
Description: Inhibition of N-type calcium flux in IMR-32 cells (Indo-1 fluorescence, nitrendipine present). The format is cell-based. The conditions noted are these: for IC50: IMR-32 cells, 5 μM nitrendipine, K+ depolarization. In a few lines:
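Differentiated IMR-32 cells (7–13 days) were loaded with 5 μM Indo-1 AM, preincubated with compound for 10 min at 30° C, and depolarized with KCl/CaCl2 stimulation solution, with 5 μM nitrendipine blocking L-channels. Peak-minus-basal 400/490 nm emission ratio was plotted against drug concentration, and IC50 came from four-parameter logistic fits.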
(Calcium assays in cells follow changes in intracellular calcium, usually with a dye or a luminescent sensor.)

Test [3] deals with Na+ channels in superior cervical ganglion (SCG) neurons. Description: Whole-cell voltage clamp, Na+ current in SCG neurons. The format is cell-based, rat. Conditions: 10 μM. How it is done: as §1, §2, §3, §4
Test [4] concerns the target T2, N-type Ca2+ channels in superior cervical ganglion (SCG) neurons (Rattus norvegicus, UniProt Q02294).
T2 construct: from tissue
Description: Whole-cell voltage clamp, N-type Ca2+ current in SCG neurons. The class given is cell-based. The conditions noted are these: 10 μM. How it is done:
as §1, §2, §3
After obtaining a whole-cell recording, Ca^2+ channels were elicited by stepping to test potentials between −40 and +20 mV for 120 msec from the holding potential of −90 mV to determine if the amplitude of the current and clamp control were adequate for evaluation of drug effects. Ca^2+ channel currents were evoked by stepping from a holding potentials between −65 mV and −−55 mV to a test potential of +20 mV for 150 msec every 40 seconds. The amplitude of the Ca^2+ channel currents were compared before and during drug application and drug effects expressed as percent inhibition of the amplitude of control currents.

T1 sequence (Q00975 whole entry): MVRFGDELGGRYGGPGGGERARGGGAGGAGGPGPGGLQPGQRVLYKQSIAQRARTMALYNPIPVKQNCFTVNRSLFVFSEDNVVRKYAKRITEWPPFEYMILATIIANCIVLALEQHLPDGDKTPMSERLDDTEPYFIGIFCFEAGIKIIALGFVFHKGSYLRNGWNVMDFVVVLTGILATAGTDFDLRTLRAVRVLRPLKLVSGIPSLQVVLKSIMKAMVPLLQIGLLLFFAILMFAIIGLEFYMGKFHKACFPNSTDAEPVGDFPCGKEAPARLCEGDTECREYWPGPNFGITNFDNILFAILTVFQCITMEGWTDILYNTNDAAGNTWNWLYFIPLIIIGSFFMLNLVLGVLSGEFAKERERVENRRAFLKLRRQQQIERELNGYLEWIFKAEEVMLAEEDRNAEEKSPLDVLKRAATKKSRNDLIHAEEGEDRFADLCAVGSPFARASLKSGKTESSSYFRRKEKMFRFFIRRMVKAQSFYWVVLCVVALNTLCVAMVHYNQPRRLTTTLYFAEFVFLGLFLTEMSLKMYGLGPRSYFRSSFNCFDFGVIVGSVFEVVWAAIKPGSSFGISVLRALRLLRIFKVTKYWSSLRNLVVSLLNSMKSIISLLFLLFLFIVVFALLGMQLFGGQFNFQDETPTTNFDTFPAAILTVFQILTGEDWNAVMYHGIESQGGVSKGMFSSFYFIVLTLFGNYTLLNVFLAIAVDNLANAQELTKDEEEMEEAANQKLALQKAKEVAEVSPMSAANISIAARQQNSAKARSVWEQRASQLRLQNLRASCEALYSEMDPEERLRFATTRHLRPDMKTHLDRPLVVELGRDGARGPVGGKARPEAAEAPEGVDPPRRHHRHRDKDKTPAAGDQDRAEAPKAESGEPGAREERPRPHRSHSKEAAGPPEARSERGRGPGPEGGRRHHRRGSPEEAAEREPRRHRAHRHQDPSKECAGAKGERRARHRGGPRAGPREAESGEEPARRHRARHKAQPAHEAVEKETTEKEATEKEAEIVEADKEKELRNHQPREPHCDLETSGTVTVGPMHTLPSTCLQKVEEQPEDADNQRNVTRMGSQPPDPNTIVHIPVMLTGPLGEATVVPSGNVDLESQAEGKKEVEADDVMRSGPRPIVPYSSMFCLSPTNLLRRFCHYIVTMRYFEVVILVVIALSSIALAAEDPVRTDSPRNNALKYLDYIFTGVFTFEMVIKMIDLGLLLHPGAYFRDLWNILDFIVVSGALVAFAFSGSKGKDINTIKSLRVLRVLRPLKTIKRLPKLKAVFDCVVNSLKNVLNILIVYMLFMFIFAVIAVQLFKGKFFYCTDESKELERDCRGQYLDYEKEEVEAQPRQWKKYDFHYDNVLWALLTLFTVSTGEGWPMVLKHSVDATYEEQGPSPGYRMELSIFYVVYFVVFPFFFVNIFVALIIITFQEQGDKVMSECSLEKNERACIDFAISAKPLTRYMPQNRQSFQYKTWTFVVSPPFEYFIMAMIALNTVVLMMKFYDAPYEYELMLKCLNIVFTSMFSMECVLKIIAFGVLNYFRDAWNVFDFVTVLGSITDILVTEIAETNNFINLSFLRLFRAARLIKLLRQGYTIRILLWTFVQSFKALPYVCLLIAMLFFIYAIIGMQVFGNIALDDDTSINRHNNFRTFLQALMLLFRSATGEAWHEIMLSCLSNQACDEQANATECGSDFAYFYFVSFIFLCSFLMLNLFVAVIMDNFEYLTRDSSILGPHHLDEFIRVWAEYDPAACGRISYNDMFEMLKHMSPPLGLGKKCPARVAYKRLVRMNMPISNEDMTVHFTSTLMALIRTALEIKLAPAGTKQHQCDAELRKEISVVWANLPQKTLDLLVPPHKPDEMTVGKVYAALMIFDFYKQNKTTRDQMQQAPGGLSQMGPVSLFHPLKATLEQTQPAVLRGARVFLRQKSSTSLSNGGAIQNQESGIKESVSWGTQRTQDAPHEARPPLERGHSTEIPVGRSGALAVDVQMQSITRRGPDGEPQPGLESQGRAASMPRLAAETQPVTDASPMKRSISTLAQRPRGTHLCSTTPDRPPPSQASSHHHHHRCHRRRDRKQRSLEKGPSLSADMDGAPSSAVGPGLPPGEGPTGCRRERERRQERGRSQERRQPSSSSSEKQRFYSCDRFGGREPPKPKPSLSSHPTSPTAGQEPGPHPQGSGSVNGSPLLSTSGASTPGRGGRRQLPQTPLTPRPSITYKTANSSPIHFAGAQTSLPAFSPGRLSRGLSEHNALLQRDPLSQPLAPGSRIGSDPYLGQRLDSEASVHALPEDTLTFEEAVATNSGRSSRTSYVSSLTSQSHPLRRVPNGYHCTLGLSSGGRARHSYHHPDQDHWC
T1 sequence (P54289 25-956 partner limits assumed): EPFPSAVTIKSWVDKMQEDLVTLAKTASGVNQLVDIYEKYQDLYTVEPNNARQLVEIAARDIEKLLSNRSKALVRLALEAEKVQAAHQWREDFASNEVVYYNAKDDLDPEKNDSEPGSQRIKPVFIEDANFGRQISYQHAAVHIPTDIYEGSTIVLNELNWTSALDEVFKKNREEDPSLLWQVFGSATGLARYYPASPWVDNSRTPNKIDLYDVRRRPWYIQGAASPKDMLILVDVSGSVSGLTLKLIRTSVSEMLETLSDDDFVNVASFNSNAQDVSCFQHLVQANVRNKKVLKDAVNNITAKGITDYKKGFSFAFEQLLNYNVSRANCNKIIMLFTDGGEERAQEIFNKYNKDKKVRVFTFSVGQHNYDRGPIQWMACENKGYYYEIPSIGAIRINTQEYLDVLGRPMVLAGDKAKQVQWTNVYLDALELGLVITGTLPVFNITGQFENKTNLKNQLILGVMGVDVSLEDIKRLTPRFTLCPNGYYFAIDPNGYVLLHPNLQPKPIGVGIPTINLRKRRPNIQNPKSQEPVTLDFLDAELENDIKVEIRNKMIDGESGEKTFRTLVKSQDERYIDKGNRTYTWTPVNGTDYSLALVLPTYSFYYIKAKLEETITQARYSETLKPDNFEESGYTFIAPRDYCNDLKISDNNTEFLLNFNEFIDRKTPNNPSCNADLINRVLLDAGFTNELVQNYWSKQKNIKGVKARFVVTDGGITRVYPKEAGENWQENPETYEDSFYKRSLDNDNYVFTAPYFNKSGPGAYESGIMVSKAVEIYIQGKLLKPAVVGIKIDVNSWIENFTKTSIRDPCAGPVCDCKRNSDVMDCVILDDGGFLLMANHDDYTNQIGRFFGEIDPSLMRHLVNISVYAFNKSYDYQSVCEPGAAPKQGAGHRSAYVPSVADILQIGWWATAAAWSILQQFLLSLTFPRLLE
T1 sequence (P54289 957-1103 partner limits assumed): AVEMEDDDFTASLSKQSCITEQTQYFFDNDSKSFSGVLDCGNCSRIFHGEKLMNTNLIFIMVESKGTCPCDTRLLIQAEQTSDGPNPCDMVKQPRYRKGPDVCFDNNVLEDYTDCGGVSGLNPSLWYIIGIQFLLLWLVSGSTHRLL
T1 sequence (P54284 whole entry partner): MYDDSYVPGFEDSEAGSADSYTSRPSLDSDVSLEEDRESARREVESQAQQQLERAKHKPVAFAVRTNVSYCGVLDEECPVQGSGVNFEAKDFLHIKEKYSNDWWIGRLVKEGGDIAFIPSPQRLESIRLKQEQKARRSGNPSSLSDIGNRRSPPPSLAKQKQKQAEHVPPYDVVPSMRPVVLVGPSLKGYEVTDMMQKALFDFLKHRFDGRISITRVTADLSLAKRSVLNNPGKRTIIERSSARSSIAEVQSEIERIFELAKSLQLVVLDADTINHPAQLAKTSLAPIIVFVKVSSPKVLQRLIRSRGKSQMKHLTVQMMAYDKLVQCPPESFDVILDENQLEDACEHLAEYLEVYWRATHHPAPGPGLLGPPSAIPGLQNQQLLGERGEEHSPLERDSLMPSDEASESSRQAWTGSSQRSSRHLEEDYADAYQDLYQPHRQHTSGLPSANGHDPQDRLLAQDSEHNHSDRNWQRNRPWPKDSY

Regarding `CC(C)C[C@H](NS(=O)(=O)c1ccc([N+](=O)[O-])cc1)C(=O)N[C@@H](Cc1ccc(OCc2ccccc2)cc1)C(=O)OC(C)(C)C` (relative stereo) [Example 39, [S-(R*,R*)]-3-(4-Benzyloxy-phenyl)-2-[4-methyl-2-(4-nitro-benzenesulfonylamino)-pentanoylamino]-propionic acid tert-butyl ester], the “Inhibition of K+ Current, % Inhibition at 10 μM” value in test [1] is recorded as 22%. For the same molecule, in test [2] (1 μM), the “Inhibition of Calcium Flux in IMR-32 Cells % Inhibition at 1 μM” value was determined as 61%. In test [2], the “Inhibition of Calcium Flux in IMR-32 Cells % Inhibition at 10 μM” value was 91% and the IC50 is 0.52 µM. In test [3], the “Inhibition of Na+ Current, % Inhibition at 10 μM” value is on record as 28%.

Consider `CC(C)C[C@H](NC(=O)c1ccccc1)C(=O)N[C@@H](Cc1ccc(OCc2ccccc2)cc1)C(=O)OC(C)(C)C` (relative stereo) [Example 130, [S-(R*,R*)]-2-(2-Benzoylamino-4-methyl-pentanoylamino)-3-(4-benzyloxy-phenyl)-propionic acid tert-butyl ester], for which the “Inhibition of Calcium Flux in IMR-32 Cells % Inhibition at 10 μM” value in test [2] was found to be 78%. The “Inhibition of N-type Ca2+ Current, % Inhibition at 10 μM” value in test [4] is on record as −7%.

Take `CC(C)C[C@H](NC(=O)N1CCCCCC1)C(=O)N[C@@H](Cc1ccc(OCc2ccccc2)cc1)C(=O)N[C@H]1CCN(Cc2ccccc2)C1` [Example 194, Azepane-1-carboxylic acid {(S)-1-[(S)-2-(4-benzyloxy-phenyl)-1-[1-benzyl-(S)-pyrrolidin-3-ylcarbamoyl]-ethylcarbamoyl]-3-methyl-butyl}-amide]: the IC50 in test [2] was 0.45 µM. Besides, testing at 10 µM in test [4] gave an inhibition of 84%.

On to `CC(C)C[C@H](NC(=O)N1CCCCCC1)C(=O)N[C@@H](Cc1ccc(OCc2ccccc2)cc1)C(=O)NCCCO` [Example 255, [S-(R*,R*)]-Azepane-1-carboxylic acid {1-[2-(4-benzyloxy-phenyl)-1-(3-hydroxy-propylcarbamoyl)-ethylcarbamoyl]-3-methyl-butyl}-amide], for which, in test [2], the concentration for half-maximal inhibition (IC50) came out at 4.3 µM.

As for `CC(C)CC(NC(=O)N1CCCCCC1)C(=O)NC(Cc1ccc(OCc2ccccc2)cc1)C(=O)N1CCCC(CO)C1` (stereo not shown) [Example 256, Azepane-1-carboxylic acid {1-[1-(4-benzyloxy-benzyl)-2-(3-hydroxymethyl-piperidin-1-yl)-2-oxo-ethylcarbamoyl]-3-methyl-butyl}-amide], the IC50 in test [2] was 1.5 µM.

In the case of `CC(C)C[C@H](NC(=O)N1CCCCCC1)C(=O)N[C@@H](Cc1ccc(OCc2ccccc2)cc1)C(=O)NC1CCNC1` (stereo partly drawn) [Example 258, [S-(R*,R*)]-Azepane-1-carboxylic acid {1-[2-(4-benzyloxy-phenyl)-1-(pyrrolidin-3-ylcarbamoyl)-ethylcarbamoyl]-3-methyl-butyl}-amide], the IC50 in test [2] turned out to be 3.6 µM.

Regarding `CC(C)C[C@H](NC(=O)N1CCCCCC1)C(=O)N[C@@H](Cc1ccc(OCc2ccccc2)cc1)C(=O)N1CCCNCC1` [Example 259, [S-(R*,R*)]-Azepane-1-carboxylic acid {1-[2-(4-benzyloxy-phenyl)-1-(1,4]diazepane-1-carbonyl)-ethylcarbamoyl]-3-methyl-butyl}-amide], the IC50 in test [2] was 2.4 µM.

Take `CC(C)C[C@H](NC(=O)N1CCCCCC1)C(=O)N[C@@H](Cc1ccc(OCc2ccccc2)cc1)C(=O)NCC1CCNCC1` [Example 262, [S-(R*,R*)]-Azepane-1-carboxylic acid (1-{-2-(4-benzyloxy-phenyl)-1-[(piperidin-4-ylmethyl)-carbamoyl]-ethylcarbamoyl]-3-methyl-butyl}-amide]: the inhibition at 10 µM in test [2] (IMR-32) is 17%. Moreover, the IC50 in test [2] came out at 51 µM.

Regarding `CC(C)C[C@H](NC(=O)N1CCCCCC1)C(=O)N[C@@H](Cc1ccc(OCc2ccccc2)cc1)C(=O)NCc1ccccc1` [Example 263, [S-(R*,R*)]-Azepane-1-carboxylic acid {1-[1-benzylcarbamoyl-2-(4-benzyloxy-phenyl)-ethylcarbamoyl]-3-methyl-butyl}-amide], the IC50 in test [2] worked out at 1.2 µM.

Turning to `COc1ccc(N2CCN(C(=O)[C@H](Cc3ccc(OCc4ccccc4)cc3)NC(=O)[C@H](CC(C)C)NC(=O)N3CCCCCC3)CC2)cc1` [Example 264, [S-(R*,R*)]-Azepane-1-carboxylic acid (1-{1-(4-benzyloxy-benzyl)-2-[4-(4-methoxy-phenyl)-piperazin-1-yl]-2-oxo-ethylcarbamoyl}-3-methyl-butyl)-amide], the half-inhibitory concentration (IC50) in test [2] came to 0.74 µM.

On to `CC(C)C[C@H](NC(=O)N1CCCCCC1)C(=O)N[C@@H](Cc1ccc(OCc2ccccc2)cc1)C(=O)N1CCC(Cc2ccccc2)CC1` [Example 265, [S-(R*,R*)]-Azepane-1-carboxylic acid {1-[1-(4-benzyloxy-benzyl)-2-(4-benzyl-piperidin-1-yl)-2-oxo-ethylcarbamoyl]-3-methyl-butyl}-amide], for which the 50% inhibitory concentration (IC50) in test [2] is 1 µM.

Take `CC(C)C[C@H](NC(=O)N1CCCCCC1)C(=O)N[C@@H](Cc1ccc(OCc2ccccc2)cc1)C(=O)NC(C)(C)CO` [Example 266, Azepane-1-carboxylic acid {(S)-1-[(S)-2-(4-benzyloxy-phenyl)-1-(2-hydroxy-1,1-dimethyl-ethylcarbamoyl)-ethylcarbamoyl]-3-methyl-butyl}-amide]: the IC50 in test [2] was determined as 1.8 µM.

Turning to `Cc1cc(NC(=O)[C@H](Cc2ccc(OCc3ccccc3)cc2)NC(=O)[C@H](CC(C)C)NC(=O)N2CCCCCC2)c(C)cc1O` [Example 267, [S-(R*,R*)]-Azepane-1-carboxylic acid {1-[2-(4-benzyloxy-phenyl)-1-(4-hydroxy-2,5-dimethyl-phenylcarbamoyl)-ethylcarbamoyl]-3-methyl-butyl}-amide], the IC50 in test [2] was determined as 4.4 µM.

On to `CC(C)C[C@H](NC(=O)N1CCCCCC1)C(=O)N[C@@H](Cc1ccc(OCc2ccccc2)cc1)C(=O)NCCCN1CCCC1` [Example 268, [S-(R*,R*)]-Azepane-1-carboxylic acid {1-[2-(4-benzyloxy-phenyl)-1-(3-pyrrolidin-1-yl-propylcarbamoyl)-ethylcarbamoyl]-3-methyl-butyl}-amide], for which the IC50 in test [2] came to 2.9 µM.

For the molecule `CC(C)C[C@H](NC(=O)N1CCCCCC1)C(=O)N[C@@H](Cc1ccc(OCc2ccccc2)cc1)C(=O)Nc1cccc(O)c1` [Example 269, [S-(R*,R*)]-Azepane-1-carboxylic acid {1-[2-(4-benzyloxy-phenyl)-1-(3-hydroxy-phenylcarbamoyl)-ethylcarbamoyl]-3-methyl-butyl}-amide], the IC50 in test [2] turned out to be 2.8 µM.

As for `CC(C)C[C@H](NC(=O)N1CCCCCC1)C(=O)N[C@@H](Cc1ccc(OCc2ccccc2)cc1)C(=O)N1CCN(C(c2ccccc2)c2ccccc2)CC1` [Example 270, [S-(R*,R*)]-Azepane-1-carboxylic acid {1-[2-(4-benzhydryl-piperazin-1-yl)-1-(4-benzyloxy-benzyl)-2-oxo-ethylcarbamoyl]-3-methyl-butyl}-amide], in test [2], the IC50 amounted to 1.2 µM.

With `CC(C)C[C@H](NC(=O)N1CCCCCC1)C(=O)N[C@@H](Cc1ccc(OCc2ccccc2)cc1)C(=O)NC1CCN(Cc2ccccc2)CC1` [Example 271, [S-(R*,R*)]-Azepane-1-carboxylic acid {1-[2-(4-benzyloxy-phenyl)-1-(1-benzyl-piperidin-4-ylcarbamoyl)-ethylcarbamoyl]-3-methyl-butyl}-amide], the inhibition at 1 µM in test [2] (IMR-32) amounted to 70%. Besides, the IC50 in test [2] worked out at 0.84 µM.
